In ChEMBL document CHEMBL1201862, “PubChem BioAssay data set” (2004):
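Dose response: 5 concentrations. Exposure: 48 h. Format: 96-well plates. Endpoint: linear interpolation; highest concentration if not reached. Here, GI50 denotes the concentration required for 50% inhibition of growth.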 Activity calls are given as the source filed them. No stated cut-off is given here; in the data, active = GI50 up to about 1.1 µM and inactive = higher.

What was measured:
Assay in all cases: inhibition of tumour cell growth, NCI panel, 48 h
DMS-273 = system: DMS-273
SNB-75 = system: SNB-75
OVCAR-8 = system: OVCAR-8
NCI-H23 = system: NCI-H23
HOP-62 = system: HOP-62
U-251 = system: U-251
COLO 205 = system: COLO 205
HCT-116 = system: HCT-116
HCC 2998 = system: HCC 2998
SK-MEL-2 = system: SK-MEL-2
LOX IMVI = system: LOX IMVI
SK-MEL-28 = system: SK-MEL-28
NCI-H460 = system: NCI-H460
MOLT-4 = system: MOLT-4
DLD-1 = system: DLD-1
M14 = system: M14
OVCAR-4 = system: OVCAR-4

| Structure (SMILES) | GI50 (DMS-273) | GI50 (SNB-75) | GI50 (OVCAR-8) | GI50 (NCI-H23) | GI50 (HOP-62) | GI50 (U-251) | GI50 (COLO 205) | GI50 (HCT-116) | GI50 (HCC 2998) | GI50 (SK-MEL-2) | GI50 (LOX IMVI) | GI50 (SK-MEL-28) | GI50 (NCI-H460) | GI50 (MOLT-4) | GI50 (DLD-1) | GI50 (M14) | GI50 (OVCAR-4) |
| --- | --- | --- | --- | --- | --- | --- | --- | --- | --- | --- | --- | --- | --- | --- | --- | --- | --- |
| N#CC(C#N)=Cc1cccc(Oc2ccccc2)c1 | 19 µM (inactive) | 29.2 µM (inactive) | 19.1 µM (inactive) | 14.9 µM (inactive) | 23.4 µM (inactive) | 13.6 µM (inactive) | 29 µM (inactive) | 17.1 µM (inactive) | 28.4 µM (inactive) | 21.2 µM (inactive) | 20.6 µM (inactive) | 13.8 µM (inactive) | 25.5 µM (inactive) | 25 µM (inactive) | 22.5 µM (inactive) | 19.6 µM (inactive) |  |
| N=C(N)NS(=O)(=O)c1ccc(NCc2c3ccccc3[n+]([O-])c3ccccc23)cc1 | 9.35 µM (inactive) | 13.5 µM (inactive) | 28.5 µM (inactive) | 21.8 µM (inactive) | 15.9 µM (inactive) | 16.6 µM (inactive) | 68.5 µM (inactive) | 8.11 µM (inactive) | 13.4 µM (inactive) | 40.2 µM (inactive) | 11.1 µM (inactive) | 20.4 µM (inactive) | 3.43 µM (inactive) | 1.94 µM (inactive) | 28.2 µM (inactive) | 46.6 µM (inactive) | 23.8 µM (inactive) |
| N#CC(C(=N/O)/C(=N/O)C(C#N)c1ccc(Cl)cc1)c1ccc(Cl)cc1 (centres undefined) | > 100 µM (inactive) | 42 µM (inactive) | 40 µM (inactive) | 92.5 µM (inactive) | > 100 µM (inactive) | > 100 µM (inactive) | 64.6 µM (inactive) | > 100 µM (inactive) | 84.1 µM (inactive) | > 100 µM (inactive) | 82.8 µM (inactive) | > 100 µM (inactive) | > 100 µM (inactive) |  | > 100 µM (inactive) | > 100 µM (inactive) | > 100 µM (inactive) |
| CCC1(CN(C)C)CC/C(=C\c2ccc(OC)c(OC)c2)C1=O (centres undefined) | > 100 µM (inactive) | > 67.8 µM (inactive) | > 100 µM (inactive) | > 100 µM (inactive) | > 100 µM (inactive) | > 100 µM (inactive) | 76.6 µM (inactive) | > 74.5 µM (inactive) | > 100 µM (inactive) | > 100 µM (inactive) | > 100 µM (inactive) | > 100 µM (inactive) | > 100 µM (inactive) | 40.2 µM (inactive) | > 80.7 µM (inactive) | > 100 µM (inactive) | > 100 µM (inactive) |
| C=Cc1ccc(C)[n+](C[Si](C)(C)O[Si](C)(C)C[n+]2cc(C=C)ccc2C)c1 | > 100 µM (inactive) | > 100 µM (inactive) | > 100 µM (inactive) | > 100 µM (inactive) | > 100 µM (inactive) | > 100 µM (inactive) | > 100 µM (inactive) | > 100 µM (inactive) | > 100 µM (inactive) | > 100 µM (inactive) | > 100 µM (inactive) | > 100 µM (inactive) | > 100 µM (inactive) | > 100 µM (inactive) | > 100 µM (inactive) | > 100 µM (inactive) | > 100 µM (inactive) |
| COc1cc2c(c(OC)c1OC)-c1ccc(SC)c(=O)cc1[C@@H](NC(=O)c1ccc([N+](=O)[O-])cc1)CC2 | < 0.0025 µM (active) | 10.7 µM (inactive) |  | < 0.01 µM (active) | < 0.0025 µM (active) | 0.025 µM (active) | < 0.0025 µM (active) | < 0.0025 µM (active) | 0.00588 µM (active) | 0.0045 µM (active) | < 0.0025 µM (active) | 4.45 µM (inactive) | 0.00327 µM (active) | 0.00289 µM (active) | < 0.0025 µM (active) | < 0.0025 µM (active) | 0.123 µM (active) |
